{"source": "paper PMC10111420", "about": "“Optimization of Host Cell-Compatible, Antimicrobial Peptides Effective against Biofilms and Clinical Isolates of Drug-Resistant Bacteria” (ACS Infectious Diseases, 2023)", "key": {"[1]": {"tested_on": "human RBCs", "type": "cell-based", "method": "Human O+ erythrocytes were obtained from Interstate Blood Bank, Inc. Red blood cells were subjected to four or more cycles of centrifugation at 1000g with resuspension in fresh PBS. Following the final wash step, the supernatant was clear and colorless. RBC concentration was determined using a standard hemocytometer.\nPeptide was serially diluted in PBS starting at a concentration of 100 μM. The final volume of peptide in each well was 50 μL. To each well, 50 μL of RBCs in PBS at 2 × 10^8 cells/mL was added. As a positive lysis control, 1% Triton was used. The mixtures were incubated at 37 °C for 1 h, after which they were centrifuged at 1000g for 5 min. After centrifugation, 10 μL of supernatant was transferred to 90 μL of DI H2O in a fresh 96-well plate. The absorbance of released hemoglobin at 410 nm was recorded, and the fractional hemolysis was calculated based on the 100 and 0% lysis controls. At least three independent experiments were performed. Results shown are averages."}, "[2]": {"experiment": "in vitro", "type": "cell-based, human", "settings": "human", "method": "The day before cytotoxicity experiments, the 10,000 cells/well were plated in a 96-well tissue-culture plate. […] To perform the cytotoxicity assay, media was removed from the wells and replaced with peptide solutions. […] The plate was read for SYTOX fluorescence every 5 min for an hour with an excitation wavelength of 504 nm and an emission wavelength of 523 nm. Percent cytotoxicity was calculated at 60 min using the 100 and 0% lysis controls. At least three independent experiments were averaged."}, "[3]": {"tested_on": "K. pneumoniae clinical isolates", "method": "(§1) Subcultures, prepared by inoculating 25 mL of fresh tryptic soy broth (TSB) with 200 μL of an overnight culture, were grown to log phase (OD600 = 0.3–0.6), after which cell counts were determined by measuring the OD600 (1.0 = 5 × 10^8 CFU/mL for E. coli, 4 × 10^8 CFU/mL for K. pneumoniae, 4 × 10^8 CFU/mL for P. aeruginosa, 1.5 × 10^8 CFU/mL for S. aureus). Bacterial cells were diluted to appropriate concentrations in TSB. We used the following clinical bacterial isolates of Klebsiella pneumoniae in this study: Strains KP6, KP46, NDM-1, KP396, and KP398 have been previously described.[43] ST58 strains C2, C3, and I2 are also described.[41] […] MRSA, […] S. aureus strain, is SAP400, a USA400 strain of community-acquired MRSA. […] The second independent set of K. pneumoniae isolates are previously described.[20],[21]\n(§2) The antibiotics were serially diluted by a factor of 2:3 horizontally across 96-well plates from Corning, 25 μL per well. One column was reserved for controls. For the assays performed in the presence of RBC, type O+ human RBCs at 0 or 2.5 × 10^9 cells/mL were added in 50 μL aliquots to all wells. Following a 30-min incubation, 50 μL of TSB, inoculated with 5 × 10^5 CFU/mL, was added to all wells, and plates were incubated overnight at 37 °C. Following overnight incubation at 37 °C, the OD600 was measured (values of less than 0.1 were considered sterilized). To assess bacterial growth in the assays with RBC, the OD600 was measured after a second-day inoculation with 10 μL of solution from the original plate added to 100 μL of sterile TSB followed by overnight incubation.\n(§3) Experiments were repeated four to eight times independently, with pairs of replicate measurements on each 96-well plate. After overnight growth, optical densities were measured at 660 nm and the sterilized wells were identified by having O.D. < 0.08. Nonsterilized wells were nearly opaque with OD > 0.6. For each measurement, we recorded the largest dilution that sterilized the bacteria. Statistics are done on dilution numbers, rather than calculated concentrations, because only the former have normal distributions."}, "[4]": {"tested_on": "K. pneumoniae clinical isolates", "experiment": "microbe, parasite or virus in culture", "settings": "clinical isolates", "method": "as §1\nas §2, with “Following a 30-min incubation, 50 μL of TSB, inoculated with 5 × 10^5 CFU/mL, was added to all wells, and plates were incubated overnight at 37 °C. Following overnight incubation at 37 °C, the OD600 was measured (values of less than 0.1 were considered sterilized).” left out\nas §3"}, "[5]": {"tested_on": "MRSA SAP400, a USA400 strain", "experiment": "microbe, parasite or virus in culture", "settings": "USA400", "method": "as §1, §2, §3"}, "[6]": {"tested_on": "Pseudomonas aeruginosa clinical isolates", "experiment": "microbe, parasite or virus in culture", "settings": "clinical isolates", "method": "as §1, §2, §3"}, "[7]": {"tested_on": "Acinetobacter baumannii (PDR) Tulane isolate", "settings": "PDR) Tulane isolate"}}, "note": "Where a SMILES comes first, the peptide text is derived from it. [ ]: non-standard residue; d: D form. βAla = NCCC(=O)O"}
{"compound": "CC(C)C[C@@H](NC(=O)[C@@H](CCCNC(=N)N)NC(=O)[C@H](CCCNC(=N)N)NC(=O)[C@@H](C)NC(=O)[C@@H](Cc1c[nH]c2ccccc12)NC(=O)[C@@H](CCCNC(=N)N)NC(=O)[C@H](N)CCCNC(=N)N)C(=O)N[C@H](C)C(=O)N[C@H](Cc1ccccc1)C(=O)N[C@@H](C)C(=O)N[C@H](Cc1ccccc1)C(=O)N[C@H](CCCNC(=N)N)C(=O)N[C@H](CCCNC(=N)N)C(N)=O", "note": "[D-CONGA-L-R5,A10] (H-[dR][dR][dW][dA]R[dR][dL][dA][dF]A[dF][dR][dR]-NH2; N-terminus and C-terminus assumed)", "values": [{"measurement": "Hemolysis at 100 μM (fractional hemolysis)", "setting": "[1]", "result": 0.04}, {"measurement": "EC50 at 60 min", "setting": "[2]", "result": "> 1000", "unit": "µM"}]}
{"compound": "CC(C)C[C@@H](NC(=O)CCNC(=O)[C@@H](CCCNC(=N)N)NC(=O)[C@@H](CCCNC(=N)N)NC(=O)[C@@H](C)NC(=O)[C@@H](Cc1c[nH]c2ccccc12)NC(=O)[C@@H](CCCNC(=N)N)NC(=O)[C@H](N)CCCNC(=N)N)C(=O)N[C@H](C)C(=O)N[C@H](Cc1ccccc1)C(=O)N[C@H](C)C(=O)N[C@H](Cc1ccccc1)C(=O)N[C@H](CCCNC(=N)N)C(=O)N[C@H](CCCNC(=N)N)C(N)=O", "note": "[D-CONGA-βA7] (H-[dR][dR][dW][dA][dR][dR][βAla][dL][dA][dF][dA][dF][dR][dR]-NH2; N-terminus and C-terminus assumed)", "values": [{"measurement": "Hemolysis at 100 μM (fractional hemolysis)", "setting": "[1]", "result": 0.02}, {"measurement": "EC50 at 60 min", "setting": "[2]", "result": "> 1000", "unit": "µM"}]}
{"compound": "CC(C)C[C@@H](NC(=O)[C@@H](CCCNC(=N)N)NC(=O)[C@@H](CCCNC(=N)N)NC(=O)[C@@H](C)NC(=O)[C@@H](Cc1c[nH]c2ccccc12)NC(=O)[C@@H](CCCNC(=N)N)NC(=O)[C@H](N)CCCNC(=N)N)C(=O)N[C@H](C)C(=O)N[C@H](Cc1ccccc1)C(=O)N[C@H](C)C(=O)N[C@H](Cc1ccccc1)C(=O)N[C@H](CCCNC(=N)N)C(=O)N[C@H](CCCNC(=N)N)C(N)=O", "note": "[D-CONGA] (H-[dR][dR][dW][dA][dR][dR][dL][dA][dF][dA][dF][dR][dR]-NH2)", "values": [{"measurement": "K. Pneumoniae Isolate MIC, 1000527", "setting": "[3]", "result": "> 25", "unit": "µM"}, {"measurement": "K. Pneumoniae Isolate MIC, 1002565", "setting": "[3]", "result": "> 25", "unit": "µM"}, {"measurement": "K. Pneumoniae Isolate MIC, 1100770", "setting": "[3]", "result": 7.3, "unit": "µM"}, {"measurement": "K. Pneumoniae Isolate MIC, 1100975", "setting": "[3]", "result": 14, "unit": "µM"}, {"measurement": "K. Pneumoniae Isolate MIC, ATCC 43816", "setting": "[3]", "result": 5.4, "unit": "µM"}, {"measurement": "K. Pneumoniae Isolate MIC, ATCC 700721", "setting": "[3]", "result": 5.4, "unit": "µM"}, {"measurement": "K. Pneumoniae Isolate MIC, K6", "setting": "[3]", "result": 2.7, "unit": "µM"}, {"measurement": "K. Pneumoniae Isolate MIC, K 6.1", "setting": "[3]", "result": 14, "unit": "µM"}, {"measurement": "K. Pneumoniae Isolate MIC, K 6.2", "setting": "[3]", "result": 14, "unit": "µM"}, {"measurement": "K. Pneumoniae Isolate MIC, KP 80", "setting": "[3]", "result": 14, "unit": "µM"}, {"measurement": "K. Pneumoniae Isolate MIC, KP NIH 1", "setting": "[3]", "result": "> 25", "unit": "µM"}, {"measurement": "K. Pneumoniae Isolate MIC, KP NIH 10", "setting": "[3]", "result": "> 25", "unit": "µM"}, {"measurement": "K. Pneumoniae Isolate MIC, KP NIH 24", "setting": "[3]", "result": "> 25", "unit": "µM"}, {"measurement": "K. Pneumoniae Isolate MIC, KP NIH 27", "setting": "[3]", "result": "> 25", "unit": "µM"}, {"measurement": "K. Pneumoniae Isolate MIC, KP NIH 29", "setting": "[3]", "result": 14, "unit": "µM"}, {"measurement": "K. Pneumoniae Isolate MIC, KP NIH 30", "setting": "[3]", "result": 7.3, "unit": "µM"}, {"measurement": "K. Pneumoniae Isolate MIC, KP NIH 31", "setting": "[3]", "result": 7.3, "unit": "µM"}, {"measurement": "K. Pneumoniae Isolate MIC, KP NIH 32", "setting": "[3]", "result": "> 25", "unit": "µM"}, {"measurement": "K. Pneumoniae Isolate MIC, KP NIH 33", "setting": "[3]", "result": 3.6, "unit": "µM"}, {"measurement": "MIC, KP 6", "setting": "[4]", "result": 4.2, "unit": "µM"}, {"measurement": "MIC, KP 46", "setting": "[4]", "result": 4.4, "unit": "µM"}, {"measurement": "MIC, KP 398", "setting": "[4]", "result": 32, "unit": "µM"}, {"measurement": "MIC, KP 2146NDM-1", "setting": "[4]", "result": 15, "unit": "µM"}, {"measurement": "MIC, KP (CRE)", "setting": "[4]", "result": 23, "unit": "µM"}, {"measurement": "MIC, KP ATCC 33495", "setting": "[4]", "result": 5.0, "unit": "µM"}, {"measurement": "MIC, KP ST258 C2", "setting": "[4]", "result": 64, "unit": "µM"}, {"measurement": "MIC, KP ST258 C3", "setting": "[4]", "result": 92, "unit": "µM"}, {"measurement": "MIC, KP ST258 I2", "setting": "[4]", "result": 3.2, "unit": "µM"}, {"measurement": "MIC, KP ST396", "setting": "[4]", "result": 2.0, "unit": "µM"}, {"measurement": "MIC, MRSA USA400", "setting": "[5]", "result": 2.6, "unit": "µM"}, {"measurement": "MIC, PA(mucoid)", "setting": "[6]", "result": 4.4, "unit": "µM"}, {"measurement": "MIC, PA(non-mucoid)", "setting": "[6]", "result": 1.3, "unit": "µM"}, {"measurement": "Hemolysis at 100 μM (fractional hemolysis)", "setting": "[1]", "result": 0.06}, {"measurement": "MIC, AB (PDR)Tulane", "setting": "[7]", "result": 2.4, "unit": "µM"}]}
